Results as given in ChEMBL document CHEMBL3885861, “Open TG-GATES”.

Species on record: Rattus norvegicus
Test: Open TG-GATES - Regimen: Daily Repeat
Type: toxicity, organism-based, Sprague-Dawley
Design: regimen Daily Repeat, gender Male, age 6 weeks
Conditions: in vivo, po, 0 mg/kg, route gavage, dose level Control; for APTT / Bas / Eos / Fbg / Hb / Ht / Lym / MCH / MCV / Mono / Neu / PT / Plat / RBC / Ret / WBC / MCHC: tissue Blood; for KIDNEY_L / KIDNEY_R / KIDNEY_TOTAL: tissue Kidney; for LIVER: tissue Liver; for ALP / ALT / AST / CRE / Ca / Cl / DBIL / GLC / IP / K / LDH / Na / PL / RALB / TBIL / TC / TG / TP / gamma-GTP / BUN: tissue Plasma

SMILES: CCOc1ccc(NC(C)=O)cc1 [PHENACETIN]
- TERMINAL_BW (72 h, time 3 day): 242.4 g
- APTT (72 h, time 3 day): 16.7 s
- Bas (72 h, time 3 day): 0%
- Eos (72 h, time 3 day): 1%
- Fbg (72 h, time 3 day): 299.2 mg/dL
- Hb (72 h, time 3 day): 13.2 g/dL
- Ht (72 h, time 3 day): 39.8%
- Lym (72 h, time 3 day): 71.2%
- MCH (72 h, time 3 day): 21.1 pg
- MCV (72 h, time 3 day): 63.4 fL
- Mono (72 h, time 3 day): 2.8%
- Neu (72 h, time 3 day): 24.4%
- PT (72 h, time 3 day): 13.2 s
- Plat (72 h, time 3 day): 121.2 x10_4/uL
- RBC (72 h, time 3 day): 628.2 x10_4/ul
- Ret (72 h, time 3 day): 6.6%
- WBC (72 h, time 3 day): 85.4 x10_2/uL
- KIDNEY_L (72 h, time 3 day): 1 g
- KIDNEY_R (72 h, time 3 day): 1 g
- KIDNEY_TOTAL (72 h, time 3 day): 2 g
- LIVER (72 h, time 3 day): 11.5 g
- ALP (72 h, time 3 day): 2120 IU/L
- ALT (72 h, time 3 day): 37.8 IU/L
- AST (72 h, time 3 day): 67.2 IU/L
- CRE (72 h, time 3 day): 0.2 mg/dL
- Ca (72 h, time 3 day): 11.1 mg/dL
- Cl (72 h, time 3 day): 105.6 meq/L
- DBIL (72 h, time 3 day): 0.004 mg/dL
- GLC (72 h, time 3 day): 176.6 mg/dL
- IP (72 h, time 3 day): 7.2 mg/dL
- K (72 h, time 3 day): 4.2 meq/L
- LDH (72 h, time 3 day): 118.6 IU/L
- Na (72 h, time 3 day): 143.8 meq/L
- PL (72 h, time 3 day): 171 mg/dL
- RALB (72 h, time 3 day): 2.6 g/dL
- TBIL (72 h, time 3 day): 0.04 mg/dL
- TC (72 h, time 3 day): 85.8 mg/dL
- TG (72 h, time 3 day): 102.4 mg/dL
- TP (72 h, time 3 day): 5.7 g/dL
- gamma-GTP (72 h, time 3 day): 1 IU/L
- TERMINAL_BW ([…], time 7 day): 272.4 g
- TERMINAL_BW ([…], time 14 day): 332.8 g
- TERMINAL_BW ([…], time 28 day): 424.6 g
- APTT ([…], time 7 day): 17.7 s
- Bas ([…], time 7 day): 0%
- Eos ([…], time 7 day): 1.4%
- Fbg ([…], time 7 day): 300.2 mg/dL
- Hb ([…], time 7 day): 13.9 g/dL
- Ht ([…], time 7 day): 41.1%
- Lym ([…], time 7 day): 78.6%
- MCH ([…], time 7 day): 21.2 pg
- MCHC ([…], time 7 day): 33.8%
- MCV ([…], time 7 day): 62.6 fL
- Mono ([…], time 7 day): 2.6%
- PT ([…], time 7 day): 13.5 s
- Plat ([…], time 7 day): 118.8 x10_4/uL
- RBC ([…], time 7 day): 656.2 x10_4/ul
- Ret ([…], time 7 day): 5.4%
- WBC ([…], time 7 day): 93.4 x10_2/uL
- APTT ([…], time 14 day): 17.5 s
- Bas ([…], time 14 day): 0%
- Eos ([…], time 14 day): 1.4%
- Fbg ([…], time 14 day): 320.2 mg/dL
- Hb ([…], time 14 day): 14.3 g/dL
- Ht ([…], time 14 day): 42.1%
- Lym ([…], time 14 day): 75%
- MCH ([…], time 14 day): 19.9 pg
- MCHC ([…], time 14 day): 34%
- MCV ([…], time 14 day): 58.6 fL
- Mono ([…], time 14 day): 2.6%
- Neu ([…], time 14 day): 20.6%
- PT ([…], time 14 day): 13.3 s
- Plat ([…], time 14 day): 117.7 x10_4/uL
- RBC ([…], time 14 day): 720.4 x10_4/ul
- Ret ([…], time 14 day): 4.1%
- WBC ([…], time 14 day): 108.4 x10_2/uL
- APTT ([…], time 28 day): 23 s
- Bas ([…], time 28 day): 0%
- Eos ([…], time 28 day): 1.4%
- Fbg ([…], time 28 day): 276 mg/dL
- Hb ([…], time 28 day): 15 g/dL
- Ht ([…], time 28 day): 43.5%
- Lym ([…], time 28 day): 73.2%
- MCH ([…], time 28 day): 19.2 pg
- MCV ([…], time 28 day): 55.6 fL
- Mono ([…], time 28 day): 2.6%
- Neu ([…], time 28 day): 22.2%
- PT ([…], time 28 day): 14 s
- Plat ([…], time 28 day): 114.1 x10_4/uL
- RBC ([…], time 28 day): 782.6 x10_4/ul
- Ret ([…], time 28 day): 2.6%
- WBC ([…], time 28 day): 109.3 x10_2/uL
- KIDNEY_L ([…], time 7 day): 1.1 g
- KIDNEY_R ([…], time 7 day): 1.1 g
- KIDNEY_TOTAL ([…], time 7 day): 2.3 g
- KIDNEY_L ([…], time 14 day): 1.3 g
- KIDNEY_R ([…], time 14 day): 1.3 g
- KIDNEY_TOTAL ([…], time 14 day): 2.7 g
- KIDNEY_L ([…], time 28 day): 1.4 g
- KIDNEY_R ([…], time 28 day): 1.4 g
- KIDNEY_TOTAL ([…], time 28 day): 2.7 g
- LIVER ([…], time 7 day): 12.1 g
- LIVER ([…], time 14 day): 13.9 g
- LIVER ([…], time 28 day): 17 g
- ALP ([…], time 7 day): 1453 IU/L
- ALT ([…], time 7 day): 33.4 IU/L
- AST ([…], time 7 day): 65.8 IU/L
- BUN ([…], time 7 day): 15 mg/dL
- CRE ([…], time 7 day): 0.2 mg/dL
- Ca ([…], time 7 day): 10.9 mg/dL
- Cl ([…], time 7 day): 105 meq/L
- DBIL ([…], time 7 day): 0.004 mg/dL
- IP ([…], time 7 day): 7.1 mg/dL
- K ([…], time 7 day): 4.2 meq/L
- LDH ([…], time 7 day): 95.8 IU/L
- PL ([…], time 7 day): 167.6 mg/dL
- RALB ([…], time 7 day): 2.7 g/dL
- TBIL ([…], time 7 day): 0.044 mg/dL
- TC ([…], time 7 day): 84.4 mg/dL
- TG ([…], time 7 day): 127.8 mg/dL
- TP ([…], time 7 day): 5.9 g/dL
- gamma-GTP ([…], time 7 day): 1 IU/L
- ALP ([…], time 14 day): 1542.8 IU/L
- ALT ([…], time 14 day): 36.4 IU/L
- AST ([…], time 14 day): 62.4 IU/L
- BUN ([…], time 14 day): 14.6 mg/dL
- CRE ([…], time 14 day): 0.2 mg/dL
- Ca ([…], time 14 day): 10.8 mg/dL
- Cl ([…], time 14 day): 104.6 meq/L
- DBIL ([…], time 14 day): 0.024 mg/dL
- GLC ([…], time 14 day): 181.4 mg/dL
- IP ([…], time 14 day): 7.1 mg/dL
- K ([…], time 14 day): 4.2 meq/L
- LDH ([…], time 14 day): 158.6 IU/L
- Na ([…], time 14 day): 143.6 meq/L
- PL ([…], time 14 day): 152 mg/dL
- RALB ([…], time 14 day): 2.7 g/dL
- TBIL ([…], time 14 day): 0.062 mg/dL
- TC ([…], time 14 day): 72.6 mg/dL
- TG ([…], time 14 day): 129 mg/dL
- TP ([…], time 14 day): 6 g/dL
- gamma-GTP ([…], time 14 day): 1.2 IU/L
- ALP ([…], time 28 day): 1212.8 IU/L
- ALT ([…], time 28 day): 37 IU/L
- AST ([…], time 28 day): 68.2 IU/L
- BUN ([…], time 28 day): 17.2 mg/dL
- CRE ([…], time 28 day): 0.3 mg/dL
- Ca ([…], time 28 day): 10.7 mg/dL
- Cl ([…], time 28 day): 104.8 meq/L
- DBIL ([…], time 28 day): 0.02 mg/dL
- GLC ([…], time 28 day): 185.2 mg/dL
- IP ([…], time 28 day): 6 mg/dL
- K ([…], time 28 day): 4 meq/L
- LDH ([…], time 28 day): 76.6 IU/L
- Na ([…], time 28 day): 144.8 meq/L
- PL ([…], time 28 day): 149 mg/dL
- RALB ([…], time 28 day): 2.9 g/dL
- TBIL ([…], time 28 day): 0.048 mg/dL
